This is an account of results in article PMC6274095 (Molecules, 2016).

The target in one data set is T1, TRPV1 channel (Homo sapiens, UniProt Q8NER1).
T1 construct: host or cells: HEK293
Description: Calcium mobilization assay in HEK293/TRPV1 cells (2APB-stimulated). Format: cell-based. The protocol: (§1) Recombinant HEK293/TRPA1, HEK293/TRPV1, and HEK293/TRPV4 cell lines were generated by HD Bioscience Co. Ltd (Shanghai, China) following standard procedures as reported previously. HEK293/TRPA1 and HEK293/TRPV4 cells were cultured in complete DMEM medium with 100 μg/mL hygromycin B, 50 U/mL penicillin, and 100 μg/mL streptomycin. HEK293/TRPV1 cells were cultured with 350 μg/mL zeocin and 5 μg/mL blasticidin in complete DMEM culture medium.
(§2) Calcium influx upon TRPA1 activation by agonist stimulation was measured using calcium mobilization assay as reported previously. Briefly, cells were plated into 96-well microplates (matrigel coated) at a density of 3.5 × 10^4 cells per well. The plates were incubated at 37 °C with 5% CO2 overnight to allow the cells to recover. On the following day, replace cell culture medium with loading buffer containing Fluo-4 AM (MD, CA, USA), kept the plate at 37 °C for 30 min. Test compound was added to cells 10 min prior to the onset of TRAP1 agonist cinnamaldehyde, TRPV1 agonist 2APB, or TRPV4 agonist GSK1016790A. The calcium signal was captured with Flexstation II reader (MD, CA, USA) at 37 °C for TRPA1 and TRPV1 activation. The reader chamber was set at 24 °C for TRPV4 activation.

The target of a further data set is T2, TRPV4 ion channel (Homo sapiens, UniProt Q9HBA0).
T2 construct: host or cells: HEK293
In words: Calcium mobilization assay in HEK293/TRPV4 cells (GSK1016790A-stimulated). It is filed as cell-based. The protocol: TRPV4 is another critical TRP ion channel that plays a role in thermal and mechanical hyperalgesia. TRPV4 shares similarity with TRPA1 [24, 25]. […] Firstly, the activating effect of the TRPV4 agonist GSK1016790A was tested. […] Thereafter, cardamonin was incubated with HEK293/TRPV4 cells at 90 μM, 30 μM, and 10 μM prior to 83 nM GSK1016790A stimulation. HEK293/TRPV4 cells treated in the absence of the test compound was the negative control and 330 μM ruthenium red was performed as the positive control.
as §1, §2
A general note: Calcium flux is commonly read through the fluorescence of an indicator in the cells.

In data set [1] the test system is neonatal rat cardiomyocytes (CMs). Description: Cardiotoxicity evaluation, xCELLigence RTCA cardio impedance. The conditions noted are these: 10 μM. It is filed as cell-based.
Description: To assess the potential adverse risk in cardiomyocytes, we administrated neonatal rat cardiomyocytes (CMs) with cardamonin, tested at 10 μM (22-fold of the IC50 value). Amiodarone (10 μM), an antiarrhythmic drug that delays cardiac repolarization through inhibiting hERG potassium channels [31], was performed as a positive cardio toxic control [32]. […] Amplitude represented the height of the print. […] Cell index represented cell number and viability. […] Cardiotoxicity test of cardamonin was performed with neonatal rat cardiomyocytes that obtained from 24 h Sprague-Dawley rats [47]. Compound treatment and cardiomyocytes impedance profiles were monitored as previously reported by Yu et al. [48]. Briefly, CMs cells were seeded into cardio E-Plate 96 that pre-coated with matrigel. Thereafter, cell culture medium was refreshed every day until CMs presented stable beating patterns. For compound treatment, 10× chemical dose solutions were prepared and added to the cells. The cell impedance was captured using xCELLigence RTCA cardio instrument.
Data set [2] deals with T3, hTRPA1 cation channel (Homo sapiens, UniProt O75762).
T3 construct: host or cells: HEK293
Description: Calcium mobilization assay in HEK293/TRPA1 cells (cinnamaldehyde-stimulated). Format: cell-based. The protocol:
To discover a novel TRPA1 antagonist, a small library containing 156 natural chemicals were evaluated for their inhibitory effects on the TRPA1 ion channel at 10 μM (Figure 1A). The compound list was released previously. The cells were pre-incubated with cinnamaldehyde (CA) by its EC80 (90 μΜ) for 10 min and then treated with tested compounds. […] The time-course profile of the calcium signal was recorded (Figure 1B) and the peak value was used for determination of the maximum calcium mobilization.
as §1, §2

The next data set has as its system HEK293 cells. In words: HEK293 cell viability, Cell Titer-Glo assay. The conditions noted are these: 24 h. Format: cell-based. How it is done: In order to rule out the possibilities of false positives, we tested whether cardamonin induced cytotoxicity in HEK293 cells. The cells were seeded into 96-well plate and incubated in the presence or absence of cardamonin. HEK293 cells were incubated with cardamonin for 24 h. […] HEK293 cell viability was determined based on quantification of ATP using Cell Titer-Glo® luminescent Assay kit (Promega, Madison, WI, USA), which signals the presence of metabolically-active cells. Briefly, HEK293 cells were seeded into 96-well plates at a cell density of 3.5 × 10^4 cells per well, the plates were kept at 37 °C with 5% CO2 overnight. On the following day, cardamonin was added to the cells from a top concentration of 90 μΜ. The cells treated in the absence of the test compound were the negative control. After incubated for 24 h, Cell Titer-Glo reagent was added to the cells and Luminescence was acquired on EnVision™ 2100 Multilabel Reader (PerkinElmer, Santa Clara, CA, USA).
On the technique in general: ATP-based viability assays read luminescence as a measure of living cells.

Data set [3] has as its target T3, hTRPA1 cation channel. The following applies: HEK293/TRPA1 activation; cited from earlier work.

T3 sequence (O75762 whole entry): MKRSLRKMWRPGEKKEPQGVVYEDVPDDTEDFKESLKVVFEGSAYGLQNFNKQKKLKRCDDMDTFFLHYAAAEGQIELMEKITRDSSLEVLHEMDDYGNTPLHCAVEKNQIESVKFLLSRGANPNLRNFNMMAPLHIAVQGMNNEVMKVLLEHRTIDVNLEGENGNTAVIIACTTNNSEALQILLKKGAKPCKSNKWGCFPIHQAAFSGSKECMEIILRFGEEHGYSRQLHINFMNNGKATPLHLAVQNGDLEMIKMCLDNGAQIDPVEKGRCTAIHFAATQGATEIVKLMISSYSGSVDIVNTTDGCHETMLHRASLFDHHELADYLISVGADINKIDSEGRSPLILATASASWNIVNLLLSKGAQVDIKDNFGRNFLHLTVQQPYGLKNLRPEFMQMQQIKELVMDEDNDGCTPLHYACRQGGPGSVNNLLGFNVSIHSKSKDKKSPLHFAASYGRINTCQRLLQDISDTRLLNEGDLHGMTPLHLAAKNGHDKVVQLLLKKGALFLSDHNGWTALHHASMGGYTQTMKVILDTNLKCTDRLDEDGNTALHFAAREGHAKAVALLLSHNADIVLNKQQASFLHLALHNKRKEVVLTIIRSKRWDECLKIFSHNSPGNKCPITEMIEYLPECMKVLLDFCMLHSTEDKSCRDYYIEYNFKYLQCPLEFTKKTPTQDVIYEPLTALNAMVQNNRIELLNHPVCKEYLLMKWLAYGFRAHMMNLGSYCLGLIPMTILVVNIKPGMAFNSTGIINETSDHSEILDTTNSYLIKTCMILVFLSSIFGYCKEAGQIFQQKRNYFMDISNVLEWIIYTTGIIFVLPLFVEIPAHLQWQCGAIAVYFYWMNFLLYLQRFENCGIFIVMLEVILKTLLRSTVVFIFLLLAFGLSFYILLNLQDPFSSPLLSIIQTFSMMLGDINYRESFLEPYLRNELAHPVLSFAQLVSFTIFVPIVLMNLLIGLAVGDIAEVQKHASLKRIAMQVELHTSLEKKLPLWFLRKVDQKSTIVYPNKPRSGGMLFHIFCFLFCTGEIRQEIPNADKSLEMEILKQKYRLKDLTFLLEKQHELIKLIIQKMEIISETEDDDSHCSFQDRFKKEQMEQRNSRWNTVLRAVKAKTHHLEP
T2 sequence (Q9HBA0 whole entry): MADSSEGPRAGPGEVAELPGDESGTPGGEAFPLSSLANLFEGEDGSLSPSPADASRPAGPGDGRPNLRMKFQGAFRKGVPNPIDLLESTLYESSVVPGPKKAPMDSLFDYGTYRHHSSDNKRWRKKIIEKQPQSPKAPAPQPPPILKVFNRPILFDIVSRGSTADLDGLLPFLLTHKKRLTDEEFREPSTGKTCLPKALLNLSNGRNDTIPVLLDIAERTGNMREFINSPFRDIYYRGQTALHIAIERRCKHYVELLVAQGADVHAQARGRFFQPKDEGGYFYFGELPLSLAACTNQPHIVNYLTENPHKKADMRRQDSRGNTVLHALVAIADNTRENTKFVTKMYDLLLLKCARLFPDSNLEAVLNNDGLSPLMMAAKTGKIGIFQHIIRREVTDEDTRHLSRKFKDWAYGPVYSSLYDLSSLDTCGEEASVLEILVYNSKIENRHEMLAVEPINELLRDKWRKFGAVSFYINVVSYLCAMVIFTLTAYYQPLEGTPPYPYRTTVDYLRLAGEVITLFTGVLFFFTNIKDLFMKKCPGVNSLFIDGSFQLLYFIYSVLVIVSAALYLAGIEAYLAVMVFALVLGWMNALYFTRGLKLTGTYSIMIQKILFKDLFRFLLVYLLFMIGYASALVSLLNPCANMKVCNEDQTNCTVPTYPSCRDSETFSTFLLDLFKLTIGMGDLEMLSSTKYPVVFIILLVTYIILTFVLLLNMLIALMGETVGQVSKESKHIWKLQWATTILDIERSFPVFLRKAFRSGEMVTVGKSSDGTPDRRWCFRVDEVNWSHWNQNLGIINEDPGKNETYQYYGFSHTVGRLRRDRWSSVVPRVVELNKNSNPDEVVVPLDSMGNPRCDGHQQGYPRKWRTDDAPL
T1 sequence (Q8NER1 whole entry): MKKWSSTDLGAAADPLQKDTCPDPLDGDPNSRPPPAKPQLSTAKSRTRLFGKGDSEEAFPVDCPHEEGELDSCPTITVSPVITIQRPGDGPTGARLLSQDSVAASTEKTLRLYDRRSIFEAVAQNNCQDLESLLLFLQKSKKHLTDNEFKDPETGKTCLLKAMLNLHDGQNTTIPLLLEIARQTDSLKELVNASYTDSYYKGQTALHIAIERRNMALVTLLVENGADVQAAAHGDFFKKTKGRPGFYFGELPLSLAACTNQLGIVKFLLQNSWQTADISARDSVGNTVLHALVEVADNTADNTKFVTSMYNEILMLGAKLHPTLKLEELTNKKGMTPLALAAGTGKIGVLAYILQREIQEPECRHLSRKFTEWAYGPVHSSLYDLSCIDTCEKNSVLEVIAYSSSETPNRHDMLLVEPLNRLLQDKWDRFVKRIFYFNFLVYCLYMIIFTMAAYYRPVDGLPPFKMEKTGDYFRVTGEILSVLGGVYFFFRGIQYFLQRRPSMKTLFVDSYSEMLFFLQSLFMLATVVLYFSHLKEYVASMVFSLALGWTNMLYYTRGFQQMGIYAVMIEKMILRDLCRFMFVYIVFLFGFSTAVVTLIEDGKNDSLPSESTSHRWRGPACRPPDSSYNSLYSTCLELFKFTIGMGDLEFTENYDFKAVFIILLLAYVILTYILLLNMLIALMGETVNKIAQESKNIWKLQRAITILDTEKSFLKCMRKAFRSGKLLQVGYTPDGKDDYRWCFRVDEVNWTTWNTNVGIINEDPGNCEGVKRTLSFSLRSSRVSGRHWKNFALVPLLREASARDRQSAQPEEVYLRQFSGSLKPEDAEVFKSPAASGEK

On to `Cl.Cl.Cl.Cl.Cl.Cl.N.N.N.N.N.N.N.N.N.N.N.N.N.N.[O-2].[O-2].[Ru+3].[Ru+3].[Ru+4]` [ruthenium red, reference compound], for which the IC50 – broadly, the concentration that inhibits the measured activity by half – stood at 207 µM on TRPV1 channel (HEK293/TRPV1, 1 mM 2APB stimulation, read-out: IC50, inhibition of TRPV1 activation) and 29.8 µM at TRPV4 ion channel (HEK293/TRPV4, added 10 min prior to 83 nM GSK1016790A, 24 °C, read-out: IC50, blocking TRPV4 activation).

As to `CCCCc1oc2ccccc2c1C(=O)c1cc(I)c(OCCN(CC)CC)c(I)c1` [amiodarone, reference compound], the “CMs' beating rate” value in data set [1] was “significantly decreased”.

As to `CC(C)C[C@H](NC(=O)c1cc2ccccc2s1)C(=O)N1CCN(C(=O)[C@H](CO)NS(=O)(=O)c2ccc(Cl)cc2Cl)CC1` [GSK1016790A], the EC50 (usually the concentration needed to bring the measured effect to its halfway point) at TRPV4 ion channel is 0.0092 µM.

With `COc1cc(O)cc(O)c1C(=O)/C=C/c1ccccc1` [cardamonin], on hTRPA1 cation channel [2], the IC50 turned out to be 0.454 µM. Also, the “Inhibition of CA induced HEK293/TRPA1 activation (screen)” value at hTRPA1 cation channel [2] (10 μM compound, 90 μM cinnamaldehyde) is recorded as “significantly inhibited”. Further, at hTRPA1 cation channel [2] (at 90 μM compound), the “Blockage of TRPA1 activity” value is “Full blockage”. For the same compound, the “Activation of TRPA1 by compound alone” value on hTRPA1 cation channel [2] (without agonist) is “could not activate TRPA1 alone”. At TRPV1 channel (90 μΜ, 30 μΜ and 10 μΜ, pre-treated 10 min, 1 mM 2APB, 37 °C), the “Inhibition of calcium influx in HEK293/TRPV1 cells” value was “failed to inhibit calcium influx”. Besides, the “Inhibition of TRPV4 calcium signal” value on TRPV4 ion channel (90 μM, 30 μM and 10 μM prior to 83 nM GSK1016790A) is given as “No detectable inhibiting effect”. The “Cytotoxicity in HEK293 cells” value in the data set on HEK293 cells (90 μΜ (top concentration)) is “slight cell injury”. In addition, the “Cytotoxicity in HEK293 cells” value in the data set on HEK293 cells (within 30 μΜ, p > 0.05) is on record as “no detectable cytotoxicity”. Moreover, in data set [1], the “Amplitude profile of CMs” value was “in accordance with vehicle control”; the “CMs' beating pattern (real-time beating impedance)” value was “did not induce dramatic alteration”; the “CMs' beating rate” value is reported as “not”; the “Cell index (CMs cell number and cell viability)” value is listed as “did not significantly decrease”.

For the compound `O=C/C=C/c1ccccc1` [cinnamaldehyde], the “EC80 of TRPA1 agonist” value at hTRPA1 cation channel [3] is 90 μΜ.
